In PMC7367873, “Dissecting the sequence determinants for dephosphorylation by the catalytic subunits of phosphatases PP1 and PP2A” (Nature Communications, 2020):

Key:
GFP-14-3-3β = GFP-14-3-3β co-IP with LC-MS/MS, untreated GFP-14-3-3β versus GFP control (14-3-3 interactome); type: binding, human
Procedure: (§1) HeLa Kyoto cells expressing transiently transfected pEGFP(C1)-14-3-3β or pEGFP(C1) control plasmid, were incubated with 20 nM Calyculin A (# 9902 S, Cell Signaling Technology) for 12 min. Cells were washed twice on ice with cold PBS and after addition of 500 µL lysis buffer (100 mM NaCl, 10 mM Tris, 0.1% IGEPAL, 1 mM EDTA, 1 mM EGTA, 20 nM Calyculin A, 1x cOmplete Mini protease inhibitor cocktail (Sigma), 1 mM DTT, 1 mM MnCl2) cells were scraped from plates, lysed by 10 pushes through an injection needle (21 G, BD) and the insoluble fraction was pelleted by centrifugation (10 min, 10^4 rcf, 4 °C). Supernatants were then subjected to incubation with 1 µM recombinant phosphatase or buffer for 1 h at 30 °C. Next, we subjected samples to immunoprecipitation using α-GFP nanobodies covalently coupled to agarose beads (2 h, 4 °C, obtained from the EMBL PEPcore Core Facility). Beads were then washed three times with lysis buffer and samples were eluted in 1x LDS sample buffer (Thermo Fisher Scientific) by heating to 70 °C for 10 min.
(§2) The samples were then reduced with 25 mM dithiothreitol (10 min at 70 °C) and alkylated with 55 mM chloroacetamide (room temperature, 30 min, in the dark). Proteins were run on a precast 4–12% NuPAGE gel (ThermoFisher Scientific) for about 1 cm to concentrate the sample prior to in-gel tryptic digestion, which was performed according to the standard procedures. The peptides obtained were dried to completeness and resuspended in 12 µL of buffer A (0.1% FA), and 5 µL of sample were injected per MS measurement. The experiment was carried out in three independent replicates.
(§3) The samples were analyzed by LC-MS/MS on a Dionex Ultimate 3000 nano-HPLC coupled online to a Fusion Lumos Tribrid mass spectrometer (Thermo Fisher Scientific). Peptides were delivered to a trap column (75 µm × 2 cm, packed in-house with 5 µm C18 resin; Reprosil PUR AQ, Dr. Maisch) and washed using 0.1% FA at a flow rate of 5 µL/min for 10 min. Subsequently, peptides were transferred to an analytical column (75 µm × 45 cm, packed in-house with 3 µm C18 resin; Reprosil Gold) applying a flow rate of 300 nL/min and separated using a 60 min linear gradient from 4% to 32% LC solvent B (0.1% FA, 5% DMSO in ACN) in LC solvent A (0.1% FA in 5% DMSO). The eluate from the analytical column was sprayed via a stainless steel emitter (Thermo Fisher Scientific) at a source voltage of 2.1 kV into the mass spectrometer. The transfer capillary was heated to 275 °C. The Fusion Lumos was operated in positive ionization mode and data-dependent acquisition (DDA), automatically switching between MS1 and MS2 spectrum acquisition. Full scan MS1 spectra were recorded in the Orbitrap from 360 to 1300 m/z at a resolution of 60k (automatic gain control (AGC) target value of 4e5 charges, maximum injection time (maxIT) of 50 ms). Up to 20 peptide precursors were isolated (isolation window, 1.7 m/z; maximum injection time, 25 ms; and AGC value, 1e5), fragmented by high-energy collision-induced dissociation (HCD) using 30% normalized collision energy (NCE), and analyzed at a resolution of 15k in the Orbitrap. Precursor ions that were singly charged, unassigned, or with charge states >6+ were excluded. The dynamic exclusion duration of fragmented precursor ions was 20 s.
(§4) Peptide and protein identification and LFQ were performed using MaxQuant software (version 1.6.1.0)[64] by searching the data against all canonical protein sequences as annotated in the Swissprot reference database (human proteins only, 20193 entries, downloaded 22 March 2016, internally annotated with PFAM domains) using the embedded search engine Andromeda[65]. The MaxQuant search was performed using two variable modifications; oxidation of methionine and N-terminal protein acetylation. Carbamidomethylation on cysteines was specified as a fixed modification. Trypsin (Trypsin/P) was specified as the proteolytic enzyme with up to two allowed missed cleavage sites.

[1] = tested on: GFP-14-3-3β and its binding proteins; test: GFP-14-3-3β co-IP with LC-MS/MS label-free quantification, untreated versus PP1c-treated; design: species or system human
Procedure: as §1, §2, §3, §4

[2] = pairwise comparison untreated GFP-14-3-3β vs GFP, student's t-test, 3 replicates each, LC-MS/MS label-free quantification
[3] = pairwise comparison PP1 vs untreated, student's t-test, 3 replicates each, LC-MS/MS label-free quantification
[4] = GFP-14-3-3β co-IP LC-MS/MS, untreated vs GFP, student's t-test, label-free quantification, 3 replicates each
[5] = GFP-14-3-3β co-IP LC-MS/MS, PP1 vs untreated, student's t-test, label-free quantification, 3 replicates each
[6] = pairwise comparison untreated vs GFP
[7] = pairwise comparison PP1 vs untreated
[8] = untreated vs GFP, LFQ intensities, 3 replicates each
[9] = PP1 vs untreated, LFQ intensities, 3 replicates each
[10] = untreated vs GFP, label-free quantification
[11] = PP1 vs untreated, label-free quantification
[12] = untreated vs GFP, LFQ intensities, replicates 1-3
[13] = PP1 vs untreated, LFQ intensities, replicates 1-3

TTC28
Difference (log2), untreated vs GFP (GFP-14-3-3β; [2]): 4.184 log2
Difference (log2), PP1 vs untreated [1, 3]: -4.888 log2

RNF5
Difference (log2), untreated vs GFP (GFP-14-3-3β; [4]): 0.3906 log2
Difference (log2), PP1 vs untreated [1, 5]: -0.2892 log2

ARAF
Difference (log2), untreated vs GFP (GFP-14-3-3β; [2]): 3.851 log2
Difference (log2), PP1 vs untreated [1, 3]: -3.95 log2

IQGAP1
Difference (log2), untreated vs GFP (GFP-14-3-3β; [4]): 0.3872 log2
Difference (log2), PP1 vs untreated [1, 5]: -0.359 log2

DDX6
Difference (log2), untreated vs GFP (GFP-14-3-3β; [4]): 1.378 log2
Difference (log2), PP1 vs untreated [1, 5]: -0.3213 log2

VIM
Difference (log2), untreated vs GFP (GFP-14-3-3β; [6]): 0.4109 log2
Difference (log2), PP1 vs untreated [1, 7]: 0.1241 log2

SRSF3
Difference (log2), untreated vs GFP (GFP-14-3-3β; [2]): 2.78 log2
Difference (log2), PP1 vs untreated [1, 3]: -2.154 log2

TTC27
Difference (log2), untreated vs GFP (GFP-14-3-3β; [8]): 0.5169 log2
Difference (log2), PP1 vs untreated [1, 9]: 0.3393 log2

PRRC2A
Difference (log2), untreated vs GFP (GFP-14-3-3β; [8]): 0.07605 log2
Difference (log2), PP1 vs untreated [1, 9]: 0.5007 log2

RFC3
Difference (log2), untreated vs GFP (GFP-14-3-3β; log2 difference, pairwise comparison untreated vs GFP, label-free quantification, 3 replicates each): -0.5439
Difference (log2), PP1 vs untreated ([1]; log2 difference, pairwise comparison PP1 vs untreated, label-free quantification, 3 replicates each): 1.3203

RACGAP1
Difference (log2), untreated vs GFP (GFP-14-3-3β; [2]): 6.129 log2
Difference (log2), PP1 vs untreated [1, 3]: -3.139 log2

APC
Difference (log2), untreated vs GFP (GFP-14-3-3β; [6]): 0.7989 log2
Difference (log2), PP1 vs untreated [1, 7]: 0.0453 log2

IMPDH2
Difference (log2), untreated vs GFP (GFP-14-3-3β; [10]): -1.172 log2
Difference (log2), PP1 vs untreated [1, 11]: 1.157 log2

SYNCRIP
Difference (log2), untreated vs GFP (GFP-14-3-3β; [6]): 0.5804 log2
Difference (log2), PP1 vs untreated [1, 7]: 0.2079 log2

WWC1
Difference (log2), untreated vs GFP (GFP-14-3-3β; [2]): 3.436 log2
Difference (log2), PP1 vs untreated [1, 3]: -3.748 log2

RNF213
Difference (log2), untreated vs GFP (GFP-14-3-3β; [8]): 0.8982 log2
Difference (log2), PP1 vs untreated [1, 9]: 0.6499 log2

DOCK7
Difference (log2), untreated vs GFP (GFP-14-3-3β; [2]): 5.106 log2
Difference (log2), PP1 vs untreated [1, 3]: -5.0278 log2

YES1
Difference (log2), untreated vs GFP (GFP-14-3-3β; [12]): -0.5463 log2
Difference (log2), PP1 vs untreated [1, 13]: -0.8848 log2

USP10
Difference (log2), untreated vs GFP (GFP-14-3-3β; [8]): 1.017 log2
Difference (log2), PP1 vs untreated [1, 9]: 0.4174 log2

HNRNPK
Difference (log2), untreated vs GFP (GFP-14-3-3β; [6]): 0.6096 log2
Difference (log2), PP1 vs untreated [1, 7]: 0.05533 log2

EPPK1
Difference (log2), untreated vs GFP (GFP-14-3-3β; [6]): 0.5175 log2
Difference (log2), PP1 vs untreated [1, 7]: 0.1139 log2

HSPA5
Difference (log2), untreated vs GFP (GFP-14-3-3β; [4]): -0.3432 log2
Difference (log2), PP1 vs untreated [1, 5]: -0.6263 log2

YWHAB
Difference (log2), untreated vs GFP (GFP-14-3-3β; [4]): 6.723 log2
Difference (log2), PP1 vs untreated [1, 5]: -0.475 log2

EEF1G
Difference (log2), untreated vs GFP (GFP-14-3-3β; [8]): -0.3337 log2
Difference (log2), PP1 vs untreated [1, 9]: 0.3367 log2

MSH6
Difference (log2), untreated vs GFP (GFP-14-3-3β; [6]): 1.062 log2
Difference (log2), PP1 vs untreated [1, 7]: 0.0512 log2

TRIM25
Difference (log2), untreated vs GFP (GFP-14-3-3β; [6]): -0.2184 log2
Difference (log2), PP1 vs untreated [1, 7]: 0.1738 log2

CFL1
Difference (log2), untreated vs GFP (GFP-14-3-3β; [8]): -1.088 log2
Difference (log2), PP1 vs untreated [1, 9]: 0.4849 log2

ARHGEF5
Difference (log2), untreated vs GFP (GFP-14-3-3β; [12]): 3.791 log2
Difference (log2), PP1 vs untreated [1, 13]: -1.778 log2

PABPC1
Difference (log2), untreated vs GFP (GFP-14-3-3β; [6]): 0.5949 log2
Difference (log2), PP1 vs untreated [1, 7]: 0.26 log2

NPM1
Difference (log2), untreated vs GFP (GFP-14-3-3β; [6]): 0.2613 log2
Difference (log2), PP1 vs untreated [1, 7]: 0.1234 log2

MED1
Difference (log2), untreated vs GFP (GFP-14-3-3β; [10]): 0.09613 log2
Difference (log2), PP1 vs untreated [1, 11]: 1.148 log2

H2AFY
Difference (log2), untreated vs GFP (GFP-14-3-3β; [12]): 1.914 log2
Difference (log2), PP1 vs untreated [1, 13]: -1.711 log2

MAT2A
Difference (log2), untreated vs GFP (GFP-14-3-3β; [2]): 0.8108 log2
Difference (log2), PP1 vs untreated [1, 3]: -2.199 log2

EIF4G1
Difference (log2), untreated vs GFP (GFP-14-3-3β; [6]): 0.6525 log2
Difference (log2), PP1 vs untreated [1, 7]: 0.2022 log2
